Laboratory results: PubChem BioAssay (NCI)
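Test compounds were applied to cells in 96-well plates for 48 hours at 5 doses. TGI marks complete inhibition of growth.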

Key:
Experiment in all cases: NCI anticancer screen, dose series, 48 h
CAKI-1 renal = test system: CAKI-1 renal
M14 melanoma = test system: M14 melanoma
NCI-H460 lung = test system: NCI-H460 lung
PC-3 prostate = test system: PC-3 prostate
MOLT-4 leukemia = test system: MOLT-4 leukemia
UACC-257 melanoma = test system: UACC-257 melanoma
TK-10 renal = test system: TK-10 renal
NCI-H23 lung = test system: NCI-H23 lung
HCT-116 colon = test system: HCT-116 colon
LOX IMVI melanoma = test system: LOX IMVI melanoma
NCI-H522 lung = test system: NCI-H522 lung
OVCAR-3 ovarian = test system: OVCAR-3 ovarian
SNB-75 CNS = test system: SNB-75 CNS
SK-MEL-5 melanoma = test system: SK-MEL-5 melanoma
K-562 leukemia = test system: K-562 leukemia
NCI-H226 lung = test system: NCI-H226 lung
HCC-2998 colon = test system: HCC-2998 colon
SF-268 CNS = test system: SF-268 CNS
OVCAR-5 ovarian = test system: OVCAR-5 ovarian
HT29 colon = test system: HT29 colon
UO-31 renal = test system: UO-31 renal
SK-MEL-2 melanoma = test system: SK-MEL-2 melanoma
SK-OV-3 ovarian = test system: SK-OV-3 ovarian
A549 NSCLC = test system: A549 NSCLC
NCI/ADR-RES ovarian = test system: NCI/ADR-RES ovarian
MALME-3M melanoma = test system: MALME-3M melanoma
SN12C renal = test system: SN12C renal
SF-539 CNS = test system: SF-539 CNS
RPMI-8226 leukemia = test system: RPMI-8226 leukemia
CCRF-CEM leukemia = test system: CCRF-CEM leukemia
BT-549 breast = test system: BT-549 breast
KM12 colon = test system: KM12 colon
OVCAR-8 ovarian = test system: OVCAR-8 ovarian
SR leukemia = test system: SR leukemia
A498 renal = test system: A498 renal
MDA-N = test system: MDA-N
ACHN renal = test system: ACHN renal
UACC-62 melanoma = test system: UACC-62 melanoma
U251 CNS = test system: U251 CNS
MDA-MB-435 = test system: MDA-MB-435
OVCAR-4 ovarian = test system: OVCAR-4 ovarian
786-0 renal = test system: 786-0 renal
COLO 205 colon = test system: COLO 205 colon
HOP-62 NSCLC = test system: HOP-62 NSCLC
T-47D breast = test system: T-47D breast
SF-295 CNS = test system: SF-295 CNS
HS 578T breast = test system: HS 578T breast
MDA-MB-231 breast = test system: MDA-MB-231 breast
HOP-92 NSCLC = test system: HOP-92 NSCLC
EKVX NSCLC = test system: EKVX NSCLC
IGROV1 ovarian = test system: IGROV1 ovarian
HCT-15 colon = test system: HCT-15 colon
SNB-19 CNS = test system: SNB-19 CNS
SW-620 colon = test system: SW-620 colon
MCF7 breast = test system: MCF7 breast
DU-145 prostate = test system: DU-145 prostate

Measured: TGI

Oc1[nH]c2ccccc2c1N=NC1=NCCCCN1
> 100 µM: all assays above
